Where two headings read alike, the source gives them in different places.
Columns and labels:
AURKA = target: T1, AURKA (Homo sapiens, UniProt O14965); format: cell-based
T1 construct: endogenous in cells; host or cells: Jurkat cells
T1 sequence (O14965 1-403): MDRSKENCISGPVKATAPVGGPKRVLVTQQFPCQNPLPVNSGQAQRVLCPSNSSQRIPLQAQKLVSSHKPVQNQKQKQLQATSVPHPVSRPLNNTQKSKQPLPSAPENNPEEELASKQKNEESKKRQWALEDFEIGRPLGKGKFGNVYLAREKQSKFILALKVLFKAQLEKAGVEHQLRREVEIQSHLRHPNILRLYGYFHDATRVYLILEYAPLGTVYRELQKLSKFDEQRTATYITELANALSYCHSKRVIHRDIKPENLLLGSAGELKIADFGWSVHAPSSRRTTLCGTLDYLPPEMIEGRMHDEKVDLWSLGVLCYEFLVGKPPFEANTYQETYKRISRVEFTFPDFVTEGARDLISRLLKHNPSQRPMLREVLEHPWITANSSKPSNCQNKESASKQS
In short: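 Jurkat cells seeded at 1×10^6 cells/500 µL and treated with compound; lysates run on SDS-PAGE, blotted to nitrocellulose and probed overnight at 4°C for AURKA. Chemiluminescent or fluorescent band intensity fitted to a curve to give DC50 for protein degradation.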

H82 cells = assay: cells; format: cell-based; conditions: Homo sapiens
In short: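 H82 cells in RPMI1640 + 10% FBS exposed to compound (0.1% DMSO final) for 6 days at 37 °C, 5% CO2. Viability read by CellTiter-Glo ATP luminescence, normalised to DMSO and medium controls; IC50 from nonlinear regression of the dose–survival curve.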

[1] = 100 nM compound, Jurkat cells, 24 h, Table 2
[2] = 1 µM compound, Jurkat cells, 24 h, Table 2
[3] = NCI-H82, H82 cells, 4000 cells/well, CellTiter-Glo, read-out: IC50 in H82 Cells
[4] = NCI-H82, read-out: IC50 in H82 Cells

SMILES | Percentage of AURKA Degradation Induced by 100 nM Compound in Jurkat Cells (AURKA; [1]) | Percentage of AURKA Degradation Induced by 1 µM Compound in Jurkat Cells (AURKA; [2]) | IC50 (H82 cells; [3]) | Percentage of AURKA Degradation Induced by 100 nM Compound in Jurkat Cells (AURKA) | Percentage of AURKA Degradation Induced by 1 µM Compound in Jurkat Cells (AURKA) | IC50 (H82 cells; [4])
O=C1CCN(c2ccc(N3CCC4(CC3)CC(NC(=O)c3ccc(Nc5ncc6c(n5)-c5ccc(F)cc5C(c5c(F)cccc5F)=NC6)cc3)C4)nc2)C(=O)N1 [Compound A109] | ++ (30% < Degradation ≤ 70%) | ++ (30% < Degradation ≤ 70%) | < 1000 nM |  |  | 
O=C1CCN(c2ccc(N3CCC4(CC3)CN(C3CCN(c5ccc(Nc6ncc7c(n6)-c6ccc(Cl)cc6C(c6c(F)cccc6F)=NC7)cc5)CC3)CCO4)nc2)C(=O)N1 [Compound A346] |  |  |  | +++ (key: +: Degradation ≤ 30%; ++: 30% < Degradation ≤ 70%; +++: Degradation > 70%) | +++ (key: +: Degradation ≤ 30%; ++: 30% < Degradation ≤ 70%; +++: Degradation > 70%) | < 1000 nM
O=C1CCN(c2cnc(N3CCN(CCN4Cc5cc(Nc6ncc7c(n6)-c6ccc(Cl)cc6C(c6c(F)cccc6F)=NC7)ccc5C4=O)CC3)s2)C(=O)N1 [Compound A157] | ++ (30% < Degradation ≤ 70%) | + (Degradation ≤ 30%) | < 1000 nM |  |  | 
O=C1CCN(c2ccc(N3CCOC(CN4CCN(C56CC(Nc7ncc8c(n7)-c7ccc(Cl)cc7C(c7c(F)cccc7F)=NC8)(C5)C6)C(=O)C4)C3)nc2)C(=O)N1 (stereo not drawn) [Compound A311] | +++ (Degradation > 70%) | +++ (Degradation > 70%) | < 1000 nM |  |  | 
O=C1CCN(c2ccc(N3CCN(C(=O)N4CCN(C56CC(Nc7ncc8c(n7)-c7ccc(Cl)cc7C(c7c(F)cccc7F)=NC8)(C5)C6)CC4)CC3)nc2)C(=O)N1 [Compound A255] | ++ (30% < Degradation ≤ 70%) | ++ (30% < Degradation ≤ 70%) | < 1000 nM |  |  | 
O=C1CCN(c2ccc(N3CCC(O)(CN4CCN(c5ccc(Nc6ncc7c(n6)-c6ccc(Cl)cc6C(c6c(F)cccc6F)=NC7)cc5)C(=O)C4)CC3)nc2)C(=O)N1 [Compound A300] |  |  |  | +++ (key: +: Degradation ≤ 30%; ++: 30% < Degradation ≤ 70%; +++: Degradation > 70%) | +++ (key: +: Degradation ≤ 30%; ++: 30% < Degradation ≤ 70%; +++: Degradation > 70%) | < 1000 nM
O=C1CCN(c2ccc(N3CCN(C(=O)C4CCN(c5ccc(Nc6ncc7c(n6)-c6ccc(Cl)cc6C(c6c(F)cccc6F)=NC7)cc5)CC4)CC3)nc2)C(=O)N1 [Compound A277] | +++ (Degradation > 70%) | +++ (Degradation > 70%) | < 1000 nM |  |  | 
O=C1CCN(c2ccc(N3CCC4(CC3)CC(NC(=O)c3ccc(Nc5ncc6c(n5)-c5ccc(C7CC7)cc5C(c5c(F)cccc5F)=NC6)cc3)C4)nc2)C(=O)N1 [Compound A115] | +++ (Degradation > 70%) | +++ (Degradation > 70%) | < 1000 nM |  |  | 
O=C1CCN(c2cccc(N3CCN(CCC#Cc4cccc(Nc5ncc6c(n5)-c5ccc(Cl)cc5C(c5c(F)cccc5F)=NC6)c4)CC3)c2)C(=O)N1 [Compound A100] | ++ (30% < Degradation ≤ 70%) | ++ (30% < Degradation ≤ 70%) | < 1000 nM |  |  | 
CN1CCN(CC2CCN(c3cccc(N4CCC(=O)NC4=O)c3)CC2)Cc2cc(Nc3ncc4c(n3)-c3ccc(Cl)cc3C(c3c(F)cccc3F)=NC4)ccc21 [Compound A239] | +++ (Degradation > 70%) | +++ (Degradation > 70%) | < 1000 nM |  |  | 
O=C1CCN(c2cnc(N3CCN(CC4(F)CN(c5ccc(Nc6ncc7c(n6)-c6ccc(Cl)cc6C(c6c(F)cccc6F)=NC7)cc5)C4)CC3)nc2)C(=O)N1 [Compound A286] | ++ (30% < Degradation ≤ 70%) | ++ (30% < Degradation ≤ 70%) | < 1000 nM |  |  | 
O=C1CCN(c2ccc(N3CCC4(CC3)CC(N3CCN(c5ccc(Nc6ncc7c(n6)-c6ccc(Cl)cc6C(c6nccs6)=NC7)cc5)C(=O)C3)CO4)nc2)C(=O)N1 (stereo not drawn) [Compound A337] | +++ (Degradation > 70%) | +++ (Degradation > 70%) | < 1000 nM |  |  | 
CC1(C)CN(C23CC(Nc4ncc5c(n4)-c4ccc(Cl)cc4C(c4c(F)cccc4F)=NC5)(C2)C3)C(=O)CN1CC1CCN(c2ccc(N3CCC(=O)NC3=O)cn2)CC1 [Compound A316] |  |  |  | ++ (key: +: Degradation ≤ 30%; ++: 30% < Degradation ≤ 70%; +++: Degradation > 70%) | ++ (key: +: Degradation ≤ 30%; ++: 30% < Degradation ≤ 70%; +++: Degradation > 70%) | < 1000 nM
O=C1CCN(c2ccc(N3CCC(O)(CN4CCN(c5ccc(Nc6ncc7c(n6)-c6ccc(Cl)cc6C(c6c(F)cccc6F)=NC7)cc5)CC4)CC3)nc2)C(=O)N1 [Compound A264] | +++ (Degradation > 70%) | +++ (Degradation > 70%) | < 1000 nM |  |  | 
O=C1CCN(c2ccc(N3CC4(CC(N5CCN(C67CC(Nc8ncc9c(n8)-c8ccc(Cl)cc8C(c8c(F)cccc8F)=NC9)(C6)C7)C(=O)C5)C4)C3)nc2)C(=O)N1 [Compound A298] | +++ (Degradation > 70%) | +++ (Degradation > 70%) | < 1000 nM |  |  | 
O=C1CCN(c2cnc(N3CCN(CCNC(=O)c4ccc(Nc5ncc6c(n5)-c5ccc(C7CC7)cc5C(c5c(F)cccc5F)=NC6)cc4)CC3)s2)C(=O)N1 [Compound A134] | +++ (Degradation > 70%) | ++ (30% < Degradation ≤ 70%) | < 1000 nM |  |  | 
O=C1CCN(c2ccc(N3CCC4(CC3)CC(N3CCN(C56CC(Nc7ncc8c(n7)-c7ccc(Cl)cc7C(c7nccs7)=NC8)(C5)C6)C(=O)C3)CO4)nc2)C(=O)N1 (stereo not drawn) [Compound A339] | +++ (Degradation > 70%) | +++ (Degradation > 70%) | < 1000 nM |  |  | 
O=C1CCN(c2ccc(N3CCC4(CC3)CC(NC(=O)c3ccc(Nc5ncc6c(n5)-c5ccc(C7CC7)cc5C(c5ccccc5Cl)=NC6)cc3)C4)nc2)C(=O)N1 [Compound A142] | +++ (Degradation > 70%) | +++ (Degradation > 70%) | < 1000 nM |  |  | 
O=C1CCN(c2ccc(N3CCC4(CC3)CC(NC(=O)c3ccc(Nc5ncc6c(n5)-c5ccc(Cl)cc5C(c5ccccn5)=NC6)cc3)C4)nc2)C(=O)N1 [Compound A128] | +++ (Degradation > 70%) | +++ (Degradation > 70%) | < 1000 nM |  |  | 
O=C1CCN(c2ccc(N3CCN(CC4(F)CN(c5ccc(Nc6ncc7c(n6)-c6ccc(Cl)cc6C(c6nccs6)=NC7)cc5)C4)CC3)nc2)C(=O)N1 [Compound A291] | +++ (Degradation > 70%) | +++ (Degradation > 70%) | < 1000 nM |  |  | 
O=C1CCN(c2ccc(N3CCN(CC4(O)CN(c5ccc(Nc6ncc7c(n6)-c6ccc(Cl)cc6C(c6c(F)cccc6F)=NC7)cc5)C4)CC3)nc2)C(=O)N1 [Compound A281] | +++ (Degradation > 70%) | +++ (Degradation > 70%) | < 1000 nM |  |  | 
O=C1CCN(c2ccc(N3CC(C(=O)N4CCN(c5ccc(Nc6ncc7c(n6)-c6ccc(Cl)cc6C(c6c(F)cccc6F)=NC7)cc5)CC4)C3)nc2)C(=O)N1 [Compound A274] | +++ (Degradation > 70%) | +++ (Degradation > 70%) | < 1000 nM |  |  | 
O=C1CCN(c2ccc(N3CCC4(CC3)CC(NC(=O)c3ccc(Nc5ncc6c(n5)-c5ccc(OC7CC7)cc5C(c5c(F)cccc5F)=NC6)cc3)C4)nc2)C(=O)N1 [Compound A168] | +++ (Degradation > 70%) | +++ (Degradation > 70%) | < 1000 nM |  |  | 
O=C1CCN(c2ccc(N3CCN(CC#Cc4cccc(Nc5ncc6c(n5)-c5ccc(Cl)cc5C(c5c(F)cccc5F)=NC6)c4)CC3)cc2)C(=O)N1 [Compound A99] | ++ (30% < Degradation ≤ 70%) | + (Degradation ≤ 30%) | < 1000 nM |  |  | 

Source: EP4818168A1, “FUSED RING COMPOUND, PHARMACEUTICAL COMPOSITION THEREOF AND USE THEREOF” (priority 2023, dated 2025)
